Patent US20240024290A1, “PHARMACEUTICAL COMPOSITIONS COMPRISING CANNABINOID AGONIST” (ARTELO BIOSCIENCES LIMITED, priority 2020, published 2024)
Entries after “also recorded” stand apart in the source; their conditions may differ.

Tests used:
[1] = Forced degradation study of the active substance (HPLC assay area %, sample observations); type: physicochemical
Experimental: HPLC Conditions • Instrument: Agilent 1100/1200 • Column: YMC Triart Phenyl, 4.6×150 mm. 3 μm particle size (ex-YMC P.N.TPH12S03-1546PTH) • Mobile Phase: A—10 mM Ammonium acetate pH 6.0 • B—Acetonitrile • Flow Rate: 1.0 ml·min-1 • Injection Volume: 5 μl • Detection: UV @ 220 nm • Column Temp: 30° C. • Post Run: 4 minutes
• Diluent: Acetonitrile:deionised water (1:1) • Standard Solution: Make up a solution of 0.2 mg/ml. This is to be made up fresh prior to use at T=3 and T=7 days.
Accurately weigh […] of the active substance into a 100 mL volumetric flask and dissolve in 50 mL of diluent. Dilute the resulting solution to volume with diluent and mix well.
Table 1 below details the different study tests performed. All solution samples are prepared and stored in sealed vials and heated samples are cooled to ambient prior to sampling to prevent evaporation. Analysis took place on days 3 and 7 after stressing initiation for solutions described for Tests 1-6 and once exposure was complete for samples described in Tests 7-10. Due to the low levels of degradation observed at 7 days, Tests 3, 4 and 5 were heated to 80° C. for a further 4 days and analysed, and Test 6 was analysed after a further 6 days.
The photostability samples were exposed to a total of 1.92 million lux hours and an integrated near-UV energy of 374.6 Whm^−2.

endocannabinoid system = details: in vivo; cited from earlier work

CCS(=O)(=O)Nc1ccc2c(c1)nc(C(C)(C)C)n2CC1CCC(F)(F)CC1 [Compound I, N-(2-(tert-butyl)-1-((4,4-difluorocyclohexyl)methyl)-1H-benzimidazol-5-yl)ethanesulfonamide]
Sample observations ([1]; Test 1 Control (solution, ambient temperature), over study period, listed as active substance): Clear colourless solution; also recorded: No change over study period
Assay of active substance (area %) ([1]; Test 1 solution control, 0 days): 99.40 area %
Assay of active substance (area %) ([1]; Test 1 solution control, 3 days): 99.42 area %
Assay of active substance (area %) ([1]; Test 1 solution control, 7 days): 99.30 area %
Assay of active substance (area %) ([1]; Test 1 solution control, 11 days): 99.39 area %
Sample observations ([1]; Test 2 Solid state 100° C., over study period, listed as active substance): orange solid over study period.
Assay of active substance (area %) ([1]; Test 2 solid state at 100° C., 3 days): 99.43 area %
Assay of active substance (area %) ([1]; Test 2 solid state at 100° C., 7 days): 99.40 area %
Sample observations ([1]; Test 3 Acid 60° C., over study period, listed as active substance): Clear colourless solution; also recorded: No change over study period
Sample observations ([1]; Test 3 Acid (1M, ambient), over study period, listed as active substance): No change over study period; also recorded: Clear colourless solution
Assay of active substance (area %) ([1]; Test 3 acid (1M) ambient temperature, 3 days): 99.40 area %
Assay of active substance (area %) ([1]; Test 3 acid (1M) ambient temperature, 7 days): 99.41 area %
Assay of active substance (area %) ([1]; Test 3 acid (1M) at 60° C. until day 7, 80° C. until day 11, 11 days): 98.87 area %
Assay of active substance (area %) ([1]; Test 3 acid (1M) at 60° C., 3 days): 99.37 area %
Assay of active substance (area %) ([1]; Test 3 acid (1M) at 60° C., 7 days): 99.35 area %
Sample observations ([1]; Test 4 Base 40° C. (so in the source), over study period, listed as active substance): Clear colourless solution; also recorded: No change over study period
Sample observations ([1]; Test 4 Base (0.5M, ambient), over study period, listed as active substance): Clear colourless solution; also recorded: No change over study period
Assay of active substance (area %) ([1]; Test 4 base (0.5M) ambient temperature, 3 days): 99.40 area %
Assay of active substance (area %) ([1]; Test 4 base (0.5M) ambient temperature, 7 days): 99.37 area %
Assay of active substance (area %) ([1]; Test 4 base (0.5M) at 60° C. until day 7, 80° C. until day 11, 11 days): 99.16 area %
Assay of active substance (area %) ([1]; Test 4 base (0.5M) at 60° C., 3 days): 99.34 area %
Assay of active substance (area %) ([1]; Test 4 base (0.5M) at 60° C., 7 days): 99.32 area %
Sample observations ([1]; Test 5 Heat 60° C. (solution), over study period, listed as active substance): Clear colourless solution; also recorded: No change over study period
Assay of active substance (area %) ([1]; Test 5 solution at 60° C. until day 7, 80° C. until day 11, 11 days): 98.00 area %
Assay of active substance (area %) ([1]; Test 5 solution at 60° C., 3 days): 99.13 area %
Assay of active substance (area %) ([1]; Test 5 solution at 60° C., 7 days): 99.34 area %
Sample observations ([1]; Test 6 Peroxide (1.5%), over study period, listed as active substance): Clear colourless solution; also recorded: No change over study period
Assay of active substance (area %) ([1]; Test 6 peroxide (1.5%), 3 days): 98.50 area %
Assay of active substance (area %) ([1]; Test 6 peroxide (1.5%), 7 days): 97.75 area %
Assay of active substance (area %) ([1]; Test 6 peroxide (1.5%), 13 days): 96.58 area %
Sample observations ([1]; Test 7 Photostability (Solution Control), listed as active substance): Clear colourless solution; also recorded: No change over study period
Assay of active substance (area %) ([1]; Test 7 photocontrol solution): 99.40 area %
Assay of active substance (area %) ([1]; Test 8 photo treated solution (1.92 million lux hours, 374.6 Whm^-2 near-UV)): 74.53 area %
Sample observations ([1]; Test 9 Photostability (Solid Control)): Off white solid. No change over study period.
Assay of active substance (area %) ([1]; Test 9 photocontrol solid): 99.40 area %
Sample observations ([1]; Test 10 Photostability (Solid Treated), listed as active substance): orange solid over study period.
Assay of active substance (area %) ([1]; Test 10 phototreated solid (1.92 million lux hours, 374.6 Whm^-2 near-UV)): 99.31 area %
Forced degradation outcome ([1]; as a solution under photostability conditions): Major degradation
Forced degradation outcome ([1]; peroxide conditions, 1M acid and 0.5M base extended to 80° C., solution heated to 80° C.): slight degradation
Forced degradation outcome ([1]; solution at room temperature, solid at 100° C., 1M acid and 0.5M base at room temperature and 60° C., solution at 60° C., photostability as a solid): stable to degradation
Appetite stimulation (endocannabinoid system): stimulate appetite in a dose-dependent manner
CNS-psychoactive effects (endocannabinoid system): does not cause CNS-psychoactive effects
